# Where “and” joins values, the source holds several entries; their conditions need not be identical. Identical values can stand only once. After the bases stand the sugars from the 5' end (letter, count) and the backbone: PS all phosphorothioate, else s phosphorothioate and o phosphodiester by linkage. Methylation of C is not given here. e = 2'-O-(2-methoxyethyl) (MOE); k = constrained ethyl (cEt); d = 2'-deoxy (DNA)
# Target: APOL1
# Details: ASO
Sequence,"target mRNA inhibition (A431, 2 µM)","target mRNA inhibition (A431, 0.0625 µM)","target mRNA inhibition (A431, 0.25 µM)","target mRNA inhibition (A431, 1 µM)","target mRNA inhibition (A431, 0.0156 µM)","target mRNA inhibition (A431, 0.04 µM)"
"ATCAGATGGGTACTTC (sugars k2 d4 e3 k2 d5, PS)",67%,–,–,–,–,–
"ATCAGATGGGTACTTC (sugars kdddddkekekddddd, PS)",73%,–,–,–,–,–
"ATCAGATGGGTACTTC (sugars kkdddddkekeddddd, PS)",83%,–,–,–,–,–
"ATCAGATGGGTACTTC (sugars kkddddkdkdkddddd, PS)",78%,–,–,–,–,–
"ATCCTGGGCGGCGACA (sugars k4 d9 k3, PS)",–,35% and 28%,62% and 50%,82% and 72%,–,–
"ATTCAGAATTTCCACT (sugars k2 d4 e4 k2 d4, PS)",64%,–,–,–,–,–
"ATTCAGAATTTCCACT (sugars k3 d4 k3 e1 d5, PS)",89%,–,–,–,–,–
"ATTCAGAATTTCCACT (sugars kkddddkdkdkddddd, PS)",79%,–,–,–,–,–
"ATTCTATTAGAGGGCT (sugars kkddddekekeddddd, PS)",25%,–,–,–,–,–
"ATTCTATTAGAGGGCT (sugars kkddddkekekddddd, PS)",46%,–,–,–,–,–
"ATTCTATTGGGCCTCA (sugars k4 d9 k3, PS)",–,28%,62%,86%,–,–
"ATTCTCATGGTACAGG (sugars k3 d4 k3 e1 d5, PS)",93%,48%,72%,88%,17%,–
"ATTCTCATGGTACAGG (sugars k3 d5 k3 d5, PS)",97%,–,–,–,–,–
"ATTCTCATGGTACAGG (sugars kkkddddkekeddddd, PS)",94%,41%,73%,83%,15%,–
"ATTCTCATGGTACAGG (sugars kkkddddkekekdddd, PS)",70%,–,–,–,–,–
"CAACACATCATTGGGT (sugars kkddddekekeddddd, PS)",80%,–,–,–,–,–
"CAAGGCTTTTGATGAC (sugars k4 d9 k3, PS)",–,28%,58%,75%,–,–
"CACATCATTGGGTTAT (sugars k2 d4 e4 k2 d4, PS)",54%,–,–,–,–,–
"CACATCATTGGGTTAT (sugars k3 d4 k3 e1 d5, PS)",78%,–,–,–,–,–
"CACATCATTGGGTTAT (sugars kkddddkekekkdddd, PS)",34%,–,–,–,–,–
"CACCCTCTTTATCCCC (sugars k4 d9 k3, PS)",–,47% and 62%,76% and 82%,90%,–,–
"CACTTTATACCAGTGT (sugars kkddddkekekddddd, PS)",14%,–,–,–,–,–
"CAGATGTGTTTAGGCA (sugars k4 d9 k3, PS)",–,78%,93%,96%,–,–
"CAGCTATGGAAATGCC (sugars k4 d9 k3, PS)",–,34%,58%,79%,–,–
"CAGTCAGCAGGAGTAG (sugars k4 d9 k3, PS)",–,30%,54%,65%,–,–
"CAGTTTTGTAAGTGCA (sugars kdddddkekekddddd, PS)",92%,52%,79%,91%,0%,–
"CAGTTTTGTAAGTGCA (sugars kkddddkdkdkddddd, PS)",95%,–,–,95%,–,41%

Sequence,"target mRNA inhibition (A431, 2 µM)","target mRNA inhibition (A431, 0.0625 µM)","target mRNA inhibition (A431, 0.25 µM)","target mRNA inhibition (A431, 1 µM)","target mRNA inhibition (A431, 0.0156 µM)","target mRNA inhibition (A431, 0.04 µM)"
"CATTCAGAATTTCCAC (sugars k3 d4 k3 e1 d5, PS)",92%,25%,64%,82%,5%,–
"CATTCAGAATTTCCAC (sugars kddddkekekeddddd, PS)",58%,–,–,–,–,–
"CATTCAGAATTTCCAC (sugars kekddddeekkddddd, PS)",89%,–,–,–,–,–
"CCGTCAATATATTCTT (sugars k2 d4 e3 k2 d5, PS)",98%,61%,86%,96%,28%,50%
"CCTCATTGCAAATCCT (sugars k4 d9 k3, PS)",–,54%,84%,96%,–,–
"CCTTATGCTTACTCCA (sugars k4 d9 k3, PS)",–,68%,82%,93%,–,–
"CGCAATGCTGACTTGG (sugars kkdddddkekeddddd, PS)",96%,44%,80%,93%,11%,–
"CGCAATGCTGACTTGG (sugars kkddddekekeddddd, PS)",94%,48%,80%,93%,22%,–
"CGCAATGCTGACTTGG (sugars kkddddkekekkdddd, PS)",60%,–,–,–,–,–
"CGCAATGCTGACTTGG (sugars kkkddddkekekdddd, PS)",68%,–,–,–,–,–
"CGTCAATATATTCTTT (sugars kkddddekekeddddd, PS)",90%,–,–,–,–,–
"CGTGTTATATTTGATC (sugars kkddddekekeddddd, PS)",76%,–,–,–,–,–
"CTAATTTTCTGACTGT (sugars kkddddkdkdkddddd, PS)",84%,–,–,–,–,–
"CTAATTTTCTGACTGT (sugars kkddddkekekkdddd, PS)",71%,–,–,–,–,–
"CTATTAGAGGGCTAGT (sugars kddddkekekeddddd, PS)",34%,–,–,–,–,–
"CTCATTATCAGTCAGC (sugars k4 d9 k3, PS)",–,57%,65%,64%,–,–
"CTGAAGATTGGCTCTG (sugars kkddddkekekddddd, PS)",45%,–,–,–,–,–
"CTGAAGATTGGCTCTG (sugars kkkddddkekekdddd, PS)",36%,–,–,–,–,–
"CTGTGATGTGGGACTT (sugars k4 d9 k3, PS)",–,50%,76%,89%,–,–
"CTGTTCTAACTCTTGG (sugars kkddddekekeddddd, PS)",97%,64%,83%,92%,43%,–
"CTTTAAACTCAGGTGA (sugars k3 d4 k3 e1 d5, PS)",59%,–,–,–,–,–
"CTTTAAACTCAGGTGA (sugars kddddkekekeddddd, PS)",70%,–,–,–,–,–
"CTTTAAACTCAGGTGA (sugars kkddddkdkdkddddd, PS)",89%,–,–,–,–,–
"CTTTATACCAGTGTCT (sugars k3 d10 k3, PS)",–,30%,65%,88%,–,–
"CTTTATACCAGTGTCT (sugars kkddddkdkdkddddd, PS)",92%,–,–,–,–,–
"CTTTATACCAGTGTCT (sugars kkkddddkdkdkdddd, PS)",87%,–,–,–,–,–
"GAAATGAACGCAATGC (sugars k4 d9 k3, PS)",–,42%,71%,87%,–,–

# Reference: the OligoGym collection
